Assay results from PubChem BioAssay (NCI).
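Five compound concentrations were applied to cells in 96-well plates for 48 hours; endpoints were derived by simple linear interpolation of the resulting dose-response curve. Here, GI50 denotes the concentration required for 50% inhibition of growth. TGI: concentration producing complete growth inhibition.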

How the values were obtained:
Experiment in all cases: inhibition of tumour cell growth, NCI panel, 48 h
[1] = tested on: SW-620 colon
[2] = tested on: HT29 colon
[3] = tested on: MDA-MB-231 breast
[4] = tested on: HL-60(TB) leukemia
[5] = tested on: MOLT-4 leukemia
[6] = tested on: MCF7 breast
[7] = tested on: T-47D breast
[8] = tested on: NCI-H460 lung
[9] = tested on: SF-539 CNS
[10] = tested on: A549 NSCLC
[11] = tested on: OVCAR-3 ovarian
[12] = tested on: NCI-H522 lung
[13] = tested on: SNB-75 CNS
[14] = tested on: SF-295 CNS
[15] = tested on: OVCAR-4 ovarian
[16] = tested on: IGROV1 ovarian
[17] = tested on: A498 renal
[18] = tested on: LOX IMVI melanoma
[19] = tested on: HCC-2998 colon
[20] = tested on: OVCAR-8 ovarian
[21] = tested on: SR leukemia
[22] = tested on: SF-268 CNS
[23] = tested on: SK-MEL-2 melanoma
[24] = tested on: NCI-H23 lung
[25] = tested on: DU-145 prostate
[26] = tested on: UACC-257 melanoma
[27] = tested on: M14 melanoma
[28] = tested on: COLO 205 colon
[29] = tested on: HS 578T breast
[30] = tested on: RXF 393 renal
[31] = tested on: KM12 colon
[32] = tested on: UACC-62 melanoma
[33] = tested on: NCI/ADR-RES ovarian
[34] = tested on: HOP-62 NSCLC
[35] = tested on: SK-OV-3 ovarian
[36] = tested on: HCT-116 colon
[37] = tested on: SN12C renal
[38] = tested on: SK-MEL-28 melanoma
[39] = tested on: SNB-19 CNS
[40] = tested on: 786-0 renal
[41] = tested on: MDA-MB-435
[42] = tested on: TK-10 renal
[43] = tested on: K-562 leukemia
[44] = tested on: PC-3 prostate
[45] = tested on: OVCAR-5 ovarian
[46] = tested on: ACHN renal
[47] = tested on: HOP-92 NSCLC
[48] = tested on: U251 CNS
[49] = tested on: SK-MEL-5 melanoma
[50] = tested on: CCRF-CEM leukemia
[51] = tested on: HCT-15 colon
[52] = tested on: RPMI-8226 leukemia
[53] = tested on: BT-549 breast
[54] = tested on: NCI-H226 lung
[55] = tested on: MALME-3M melanoma
[56] = tested on: UO-31 renal
[57] = tested on: CAKI-1 renal

## CC(C)CNC(=O)c1ccc(NC(=O)N(CC(C)C)C(=O)c2ccc(N)c(OCCCN)c2)c(OCCCN=C(N)N)c1
[1]
  GI50: > 62.5 µM
  TGI: > 62.5 µM
[2]
  GI50: > 62.5 µM
  TGI: > 62.5 µM
[3]
  GI50: > 62.5 µM
  TGI: > 62.5 µM
[4]
  GI50: > 62.5 µM
  TGI: > 62.5 µM
[5]
  GI50: > 62.5 µM
  TGI: > 62.5 µM
[6]
  GI50: > 62.5 µM
  TGI: > 62.5 µM
[7]
  GI50: > 62.5 µM
  TGI: > 62.5 µM
[8]
  GI50: > 62.5 µM
  TGI: > 62.5 µM
[9]
  GI50: > 62.5 µM
  TGI: > 62.5 µM
[10]
  GI50: > 62.5 µM
  TGI: > 62.5 µM
[11]
  GI50: > 62.5 µM
  TGI: > 62.5 µM
[12]
  GI50: > 62.5 µM
  TGI: > 62.5 µM
[13]
  GI50: > 62.5 µM
  TGI: > 62.5 µM
[14]
  GI50: > 62.5 µM
  TGI: > 62.5 µM
[15]
  GI50: > 62.5 µM
  TGI: > 62.5 µM
[16]
  GI50: > 62.5 µM
  TGI: > 62.5 µM
[17]
  GI50: > 62.5 µM
  TGI: > 62.5 µM
[18]
  GI50: > 62.5 µM
  TGI: > 62.5 µM
[19]
  GI50: > 62.5 µM
  TGI: > 62.5 µM
[20]
  GI50: > 62.5 µM
  TGI: > 62.5 µM
[21]
  GI50: > 62.5 µM
  TGI: > 62.5 µM
[22]
  GI50: > 62.5 µM
  TGI: > 62.5 µM
[23]
  GI50: > 62.5 µM
  TGI: > 62.5 µM
[24]
  GI50: > 62.5 µM
  TGI: > 62.5 µM
[25]
  GI50: > 62.5 µM
  TGI: > 62.5 µM
[26]
  GI50: > 62.5 µM
  TGI: > 62.5 µM
[27]
  GI50: > 62.5 µM
  TGI: > 62.5 µM
[28]
  GI50: > 62.5 µM
  TGI: > 62.5 µM
[29]
  GI50: > 62.5 µM
  TGI: > 62.5 µM
[30]
  GI50: > 62.5 µM
  TGI: > 62.5 µM
[31]
  GI50: > 62.5 µM
  TGI: > 62.5 µM
[32]
  GI50: > 62.5 µM
  TGI: > 62.5 µM
[33]
  GI50: > 62.5 µM
  TGI: > 62.5 µM
[34]
  GI50: > 62.5 µM
  TGI: > 62.5 µM
[35]
  GI50: > 62.5 µM
  TGI: > 62.5 µM
[36]
  GI50: > 62.5 µM
  TGI: > 62.5 µM
[37]
  GI50: > 62.5 µM
  TGI: > 62.5 µM
[38]
  GI50: > 62.5 µM
  TGI: > 62.5 µM
[39]
  GI50: > 62.5 µM
  TGI: > 62.5 µM
[40]
  GI50: > 62.5 µM
  TGI: > 62.5 µM
[41]
  GI50: > 62.5 µM
  TGI: > 62.5 µM
[42]
  GI50: > 62.5 µM
  TGI: > 62.5 µM
[43]
  GI50: > 62.5 µM
  TGI: > 62.5 µM
[44]
  GI50: > 62.5 µM
  TGI: > 62.5 µM
[45]
  GI50: > 62.5 µM
  TGI: > 62.5 µM
[46]
  GI50: > 62.5 µM
  TGI: > 62.5 µM
[47]
  GI50: > 62.5 µM
  TGI: > 62.5 µM
[48]
  GI50: > 62.5 µM
  TGI: > 62.5 µM
[49]
  GI50: > 62.5 µM
  TGI: > 62.5 µM
[50]
  GI50: > 62.5 µM
  TGI: > 62.5 µM
[51]
  GI50: > 62.5 µM
  TGI: > 62.5 µM
[52]
  GI50: > 62.5 µM
  TGI: > 62.5 µM
[53]
  GI50: > 62.5 µM
  TGI: > 62.5 µM
[54]
  GI50: > 62.5 µM
  TGI: > 62.5 µM
[55]
  GI50: > 62.5 µM
  TGI: > 62.5 µM
[56]
  GI50: > 62.5 µM
  TGI: > 62.5 µM

## C/C(=N\NC(=O)c1ccccc1N)c1ccccc1O
[1]
  GI50: 5.05 µM
  TGI: > 100 µM
[2]
  GI50: 8.58 µM
  TGI: > 100 µM
[3]
  GI50: 5.24 µM
  TGI: > 100 µM
[4]
  GI50: 3.01 µM
  TGI: > 100 µM
[5]
  GI50: 3.17 µM
  TGI: > 100 µM
[6]
  GI50: 2.71 µM
  TGI: > 100 µM
[7]
  GI50: 2.6 µM
  TGI: > 100 µM
[8]
  GI50: 1.65 µM
  TGI: > 100 µM
[9]
  GI50: 3.26 µM
  TGI: > 100 µM
[11]
  GI50: 2.79 µM
  TGI: > 100 µM
[57]
  GI50: 2.34 µM
  TGI: > 100 µM
[13]
  GI50: > 100 µM
  TGI: > 100 µM
[14]
  GI50: 3.23 µM
  TGI: > 100 µM
[15]
  GI50: 2.14 µM
  TGI: > 100 µM
[16]
  GI50: 3.56 µM
  TGI: > 100 µM
[17]
  GI50: 10.4 µM
  TGI: > 100 µM
[18]
  GI50: 4.09 µM
  TGI: > 100 µM
[19]
  GI50: 5.8 µM
  TGI: > 100 µM
[20]
  GI50: 3.16 µM
  TGI: > 100 µM
[21]
  GI50: 2.83 µM
  TGI: 66.6 µM
[22]
  GI50: 3.05 µM
  TGI: > 100 µM
[23]
  GI50: 12.5 µM
  TGI: > 100 µM
[24]
  GI50: 7.33 µM
  TGI: > 100 µM
[25]
  GI50: 4.67 µM
  TGI: > 100 µM
[27]
  GI50: 4.29 µM
  TGI: 57.5 µM
[28]
  GI50: 3.23 µM
  TGI: > 100 µM
[29]
  GI50: 16.7 µM
  TGI: > 100 µM
[30]
  GI50: 11.2 µM
  TGI: > 100 µM
[31]
  GI50: 3.92 µM
  TGI: > 100 µM
[32]
  GI50: 3.39 µM
  TGI: 47.5 µM
[33]
  GI50: 4.52 µM
  TGI: > 100 µM
[34]
  GI50: 4.4 µM
  TGI: > 100 µM
[35]
  GI50: 13.4 µM
  TGI: > 100 µM
[36]
  GI50: 2.4 µM
  TGI: > 100 µM
[37]
  GI50: 5.25 µM
  TGI: > 100 µM
[38]
  GI50: 8.44 µM
  TGI: > 100 µM
[39]
  GI50: 9.72 µM
  TGI: > 100 µM
[40]
  GI50: 5.37 µM
  TGI: 80.4 µM
[41]
  GI50: 8.53 µM
  TGI: > 100 µM
[42]
  GI50: 1.5 µM
  TGI: > 100 µM
[43]
  GI50: 3.72 µM
  TGI: > 100 µM
[44]
  GI50: 6.95 µM
  TGI: > 100 µM
[45]
  GI50: 4.45 µM
  TGI: > 100 µM
[46]
  GI50: 2.63 µM
  TGI: > 100 µM
[47]
  GI50: 24.7 µM
  TGI: > 100 µM
[48]
  GI50: 2.21 µM
  TGI: > 100 µM
[49]
  GI50: 3.83 µM
  TGI: 57.7 µM
[51]
  GI50: 1.44 µM
  TGI: > 100 µM
[52]
  GI50: 9.51 µM
  TGI: > 100 µM
[53]
  GI50: 14.9 µM
  TGI: > 100 µM
[54]
  GI50: 5.14 µM
  TGI: > 100 µM
[55]
  GI50: 19.4 µM
  TGI: > 100 µM
[56]
  GI50: 1.94 µM
  TGI: > 100 µM
